According to patent US20210009551A1, “COMPOUNDS AND METHODS FOR TREATING FIBROSIS OR CANCER” (THE REGENTS OF THE UNIVERSITY OF CALIFORNIA, priority 2016, published 2021):
Where “and” joins values, the source holds several entries; their conditions need not be identical. Equal values may be shown once. Entries after “also recorded” stand apart in the source; their conditions may differ. One block for each compound: values may come before it.

Legend:
human LOXL2 = biological target: T1, human LOXL2 (Homo sapiens, UniProt Q9Y4K0); test: Collagen crosslinking induced by recombinant LOXL2 in lung fibroblasts (Sircol assay); assay type: cell-based; settings: primary human lung fibroblasts, 7 days
T1 sequence (Q9Y4K0 26-774): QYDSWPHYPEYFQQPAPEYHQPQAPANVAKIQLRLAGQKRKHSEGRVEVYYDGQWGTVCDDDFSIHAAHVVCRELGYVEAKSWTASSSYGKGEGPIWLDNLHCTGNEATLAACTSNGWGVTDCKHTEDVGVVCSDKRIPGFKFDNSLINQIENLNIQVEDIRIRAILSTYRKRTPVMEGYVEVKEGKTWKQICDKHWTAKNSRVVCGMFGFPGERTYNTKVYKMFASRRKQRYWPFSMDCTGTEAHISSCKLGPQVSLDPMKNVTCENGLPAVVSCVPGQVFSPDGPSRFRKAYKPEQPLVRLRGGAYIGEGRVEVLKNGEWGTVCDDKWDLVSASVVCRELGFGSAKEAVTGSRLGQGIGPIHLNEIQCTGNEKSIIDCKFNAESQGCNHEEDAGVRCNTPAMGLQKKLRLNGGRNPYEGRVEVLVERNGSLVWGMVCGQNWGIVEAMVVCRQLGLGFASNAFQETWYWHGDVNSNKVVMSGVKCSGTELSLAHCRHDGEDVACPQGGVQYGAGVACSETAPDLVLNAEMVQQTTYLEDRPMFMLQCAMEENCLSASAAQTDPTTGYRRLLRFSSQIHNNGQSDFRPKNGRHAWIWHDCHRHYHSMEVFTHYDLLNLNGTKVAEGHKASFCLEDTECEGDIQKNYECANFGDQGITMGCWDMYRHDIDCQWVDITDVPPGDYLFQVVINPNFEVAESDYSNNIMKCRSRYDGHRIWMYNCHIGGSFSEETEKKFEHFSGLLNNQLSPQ
Procedure: Preparation of insoluble cross-linked collagen. Fibroblasts were cultured on 10 cm dish until confluent. The medium was then changed to Dulbecco's modified Eagle's medium (DMEM) containing 5% FBS, 100 μM L-ascorbic acid with 500 kDa Dextran Sulfate at 100 μg/ml, and 50 ng/ml recombinant human LOXL2 (rhLOXL2) for 7 days^21,22. The cell layer was extracted with 0.5 M acetic acid and 0.1 mg/ml pepsin overnight at 4° C. The leftover insoluble fraction was further extracted and the insoluble cross-linked collagen measured using Sircol Insoluble Collagen Assay kit according to manufacture's instruction.

[1] = tested on: TGFβ1-induced epithelial-mesenchymal transition (EMT) in A549 adenocarcinoma cells; test: TGFβ1-induced EMT in A549 cells (image-based screen, immunoblot); assay type: cell-based; settings: catechins 1 and 10 μM, 48 h
Procedure: High throughput screen and high content imaging analysis. A549 cell-based screening of inhibitors to TGFβ1-induced EMT from a bioactive small molecule library was performed in 384-well plate format and the images were captured and analyzed using GE IN Cell 2000 as described previously^16.
(§1) Immunoblot. Pulverized tissue and cells were lysed in RIP A buffer (150 mM NaCl, 50 mM Tris, pH 8.0, 1% Triton X-100, 0.5% sodium deoxycholate, 0.1% SDS, supplemented with protease and phosphatase inhibitors) and analyzed by immunoblotting. Densitometry was quantified using NIH Imaged software.

[2] = biological target: T2, ALK5/TGFβRI catalytic domain (Homo sapiens, UniProt P36897); test: ALK5/TGFβRI catalytic domain kinase assay; assay type: biochemical
T2 construct: ALK5/TGFβRI kinase assays using purified catalytic domain was performed
T2 sequence (P36897 205-495 limits assumed): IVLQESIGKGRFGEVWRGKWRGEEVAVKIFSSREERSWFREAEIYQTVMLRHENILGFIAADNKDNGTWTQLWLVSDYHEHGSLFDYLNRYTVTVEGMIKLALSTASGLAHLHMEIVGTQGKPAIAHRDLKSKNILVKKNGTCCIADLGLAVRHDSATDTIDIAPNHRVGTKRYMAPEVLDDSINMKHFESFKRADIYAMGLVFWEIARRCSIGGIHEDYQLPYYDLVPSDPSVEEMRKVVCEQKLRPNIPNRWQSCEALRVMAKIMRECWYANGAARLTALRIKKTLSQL
Procedure: ALK5/TGFβRI catalytic domain kinase assay. ALK5/TGFβRI kinase assays using purified catalytic domain was performed. The reaction buffer contains 20 mM Hepes (pH 7.5), 10 mM MgCl2, 1 mM EGTA, 0.02% Brij35, 0.02 mg/ml BSA, 0.1 mM Na3VO4, 2 mM DTT, and 200 μM NAC. In brief, ten 3-fold series dilutions of 3Abd and 2Abd starting at 100 μM was delivered into kinase reaction mixture with kinase, cofactors, and substrate. After 20 min incubation at room temperature, ^33P-ATP was delivered into the mixture to initiate the reaction. Kinase activity was detected 2 h later by P81 filter-binding method.

[3] = tested on: TGFβ1 signaling (p-smad3) in A549 cells; test: TGFβ1-induced p-smad generation in cells (immunoblot); assay type: cell-based; settings: 0.5-10 μM
Procedure: as §1

[4] = biological target: T3, human TGFbeta receptor I and II (Homo sapiens, UniProt P36897); test: In vitro TGFβ receptor kinase assay (pull down); assay type: biochemical; settings: 20 μM
T3 construct: expressed in transfected cells; host or cells: A549 cells, anti-Flag immunoprecipitate on Protein G-agarose
T3 sequence (P36897 34-503): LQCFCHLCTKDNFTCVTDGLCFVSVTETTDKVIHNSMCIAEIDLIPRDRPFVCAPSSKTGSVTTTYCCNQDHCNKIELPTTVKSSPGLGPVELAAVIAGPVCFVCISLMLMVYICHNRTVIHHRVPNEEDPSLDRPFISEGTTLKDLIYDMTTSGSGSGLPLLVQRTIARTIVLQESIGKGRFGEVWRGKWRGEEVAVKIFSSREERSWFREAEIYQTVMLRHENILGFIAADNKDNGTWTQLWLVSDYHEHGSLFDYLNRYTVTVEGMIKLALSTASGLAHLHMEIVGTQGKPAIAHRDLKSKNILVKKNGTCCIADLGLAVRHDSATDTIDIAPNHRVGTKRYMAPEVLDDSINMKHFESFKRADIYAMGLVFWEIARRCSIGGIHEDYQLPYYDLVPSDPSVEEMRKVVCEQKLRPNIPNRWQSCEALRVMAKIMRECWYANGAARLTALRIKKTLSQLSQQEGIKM
Procedure: In vitro TGFβ receptor kinase assay. A549 cells were transiently co-transfected with Flag-tagged human TGFbeta receptor I and II. After 24 hours the cells were lysed in 1% NP40 lysis buffer (1% NP40, 20 mM Tris pH7.6, 200 mM NaCl plus protease inhibitor cocktail, 10 mM NaF, 1 mM Na3VO4), and the type I and II receptors were immunoprecipitated using anti-Flag antibody and Protein G-agarose (Roche). The beads were washed three times with kinase buffer (0.01% Triton X-100, 25 mM HEPES, pH 7.4, 2 mM MnCl2, 10 mM MgCl2, 20 μM DTT, 0.1 mM NaF, 0.1 mM Na3 VO4). The kinase reactions were initiated by addition of 0.1 mM ATP in the presence or absence of inhibitors or lysate from A549 cells pre-treated with corilagin. The kinase reactions were terminated by addition of an equal volume of 2×sample buffer. The TGFbeta receptor kinase activity was analyzed by SDS-PAGE and immunoblotting with anti-phosphotyrosine monoclonal antibody 4G10 (EMD Millipore) and anti-Flag antibody.

Solubility (statement) = assay type: physicochemical
[5] = tested on: C57BL/6 mice, intratracheal bleomycin; test: Bleomycin fibrosis model; assay type: in vivo
Procedure: For histological assessment of lung collagen, frozen sections of the left lung were stained using Masson's Trichrome stain kit (American MasterTech, Lodi, Calif., USA).
Bleomycin fibrosis model. Eight-week old C57BL/6 mice were intratracheally instilled with saline or 1.9 units/kg of bleomycin (Sigma-Aldrich). Mice were implanted with osmotic pumps loaded with ellagic acid salt (24 mg/kg/day, Day 10-Day 17), fed with red raspberry diet (Day 0-Day 21), or gavaged with corilagin (100 mg/kg, Day 10-Day 21). Controls were treated with control pump, control diet, or vehicle in the same formulation. The lungs were lavaged and followed by OCT embedding for imaging or snap freezing in liquid nitrogen for protein extraction or hydroxyproline assay.
Collagen content Lung or aorta collagen content was evaluated using hydroxyproline assay. Briefly, whole left lung tissue or aorta was hydrolyzed in 1 ml 12N HCl at 110° C. for 24 h and the hydroxyproline was detected by incubating with Chloramine T and p-dimethylaminobenzaldehyde and the absorbance was measured at 550 nm. Each sample was run in triplicate. Collagen content in lung or aorta tissues was expressed as micrograms of collagen per lung or aorta and was converted from micrograms of hydroxyproline.

effect on collagen crosslinking induced by recombinant LOXL2 (human LOXL2): no effect
SMILES: CC(=O)N[C@@H](CS)C(=O)O [NAC, N-acetylcysteine]

SMILES: Oc1cc(O)c2c(c1)O[C@H](c1ccc(O)c(O)c1)[C@H](O)C2 [EC, epicatechin]
inhibition of snail 1 and fibronectin in TGFβ1 stimulated A549 cells [1]: no activity

direct inhibition of TGFβRI kinase activity [2]: not
SMILES: Nc1c(O)cccc1O [Target 2Abd, 2-aminobenzene-1,3-diol]
inhibition of TGFβ1-induced p-smad3 and snail 1 without pre-incubation and regardless of LOXL2 expression [3]: not

IC50 ([2]; ten doses starting from 100 μM, 33P-ATP): ~3 µM and 3 µM | activity in a pull down kinase assay from cells overexpressing TGFβRI [4]: blocked activity
SMILES: Nc1cccc(O)c1O [Target 3Abd, 3-aminobenzene-1,2-diol]
direct inhibition of TGFβRI kinase activity [2]: directly inhibit; also recorded: directly blocked | inhibition of TGFβ1-induced p-smad3 and snail 1 without pre-incubation and regardless of LOXL2 expression [3]: potent inhibitor

SMILES: Oc1cc(O)c2c(c1)O[C@H](c1cc(O)c(O)c(O)c1)[C@H](O)C2 [EGC, epigallocatechin]
inhibition of snail 1 and fibronectin in TGFβ1 stimulated A549 cells [1]: potent inhibitor

SMILES: Nc1ccc(O)c(O)c1 [Target 4Abd, 4-aminobenzene-1,2-diol]
inhibition of TGFβ1-induced p-smad3 and snail 1 without pre-incubation and regardless of LOXL2 expression [3]: not

effect on collagen crosslinking induced by recombinant LOXL2 (human LOXL2): no effect
SMILES: NC(=O)c1ccc(-c2nc(-c3ccc4c(c3)OCO4)c(-c3ccccn3)[nH]2)cc1 [SB431542]

SMILES: O=c1oc2c(O)c(O)cc3c(=O)oc4c(O)c(O)cc1c4c23 [EA, Ellagic acid]
solubility (Solubility (statement)): poorly soluble | survival after intratracheal bleomycin ([5]; EA chow day 21, EA pump day 17): improve survival | collagen accumulation after intratracheal bleomycin ([5]; ad libitum chow of 2% w/w raspberry extract rich in EA and EA precursors): substantially block

SMILES: Oc1cccc(Cl)c1O [3 Cc, 3-chlorocatechol]
activity in a pull down kinase assay from cells overexpressing TGFβRI [4]: not
